# From US20240124432A1, “HERBICIDAL COMPOUNDS” (SYNGENTA CROP PROTECTION AG, priority 2020, published 2024)
# What was measured:
# Format in all cases: in vivo
# AMAPA [1] = assay: Pre-emergence biological efficacy; conditions: Amaranthus palmeri, 312 h, evaluated after 13 days, read-out: damage to plant (100=total damage to plant; 0=no damage to plant)
# Protocol: (§1) Seeds of weeds and/or crops were sown in standard soil in pots. After cultivation for one day under controlled conditions in a glasshouse (at 24/19° C., day/night; 16 hours light), the plants were sprayed with an aqueous spray solution derived from the formulation of the technical active ingredient in a small amount of acetone and a special solvent and emulsifier mixture referred to as IF50 (11.12% Emulsogen EL360 TM+44.44% N-methylpyrrolidone+44.44% Dowanol DPM glycol ether), to create a 50g/l solution which was then diluted using 0.2% Genapol XO80 as diluent to give the desired final dose of test compound.
# (§2) The test plants were then grown under controlled conditions in the glasshouse (at 24/18° C., day/night; 15 hours light; 50% humidity) and watered twice daily. After 13 days the test was evaluated (100=total damage to plant; 0=no damage to plant).
# ECHCG [2] = assay: Pre-emergence biological efficacy; conditions: Echinochloa crus-galli, 312 h, evaluated after 13 days, read-out: damage to plant (100=total damage to plant; 0=no damage to plant)
# Protocol: as §1, §2
# EPHHL [3] = assay: Pre-emergence biological efficacy; conditions: Euphorbia heterophylla, 312 h, evaluated after 13 days, read-out: damage to plant (100=total damage to plant; 0=no damage to plant)
# Protocol: as §1, §2
# IPOHE [4] = assay: Pre-emergence biological efficacy; conditions: Ipomoea hederacea, 312 h, evaluated after 13 days, read-out: damage to plant (100=total damage to plant; 0=no damage to plant)
# Protocol: as §1, §2
# LOLPE [5] = assay: Pre-emergence biological efficacy; conditions: Lolium perenne, 312 h, evaluated after 13 days, read-out: damage to plant (100=total damage to plant; 0=no damage to plant)
# Protocol: as §1, §2
# SETFA [6] = assay: Pre-emergence biological efficacy; conditions: Setaria faberi, 312 h, evaluated after 13 days, read-out: damage to plant (100=total damage to plant; 0=no damage to plant)
# Protocol: as §1, §2
# AMAPA [7] = assay: Post-emergence biological efficacy; conditions: Amaranthus palmeri, 312 h, evaluated after 13 days, read-out: damage to plant (100=total damage to plant; 0=no damage to plant)
# Protocol: as §1, with “14 days” for “one day”
# (§3) The test plants were then grown under controlled conditions in the glasshouse (at 24/18° C., day/night; 15 hours light; 50% humidity)and watered twice daily. After 13 days the test was evaluated (100=total damage to plant; 0=no damage to plant).
# CHEAL = assay: Post-emergence biological efficacy; conditions: Chenopodium album, 312 h, evaluated after 13 days, read-out: damage to plant (100=total damage to plant; 0=no damage to plant)
# Protocol: as §1, with “14 days” for “one day”
# as §3
# DIGSA = assay: Post-emergence biological efficacy; conditions: Digitaria sanguinalis, 312 h, evaluated after 13 days, read-out: damage to plant (100=total damage to plant; 0=no damage to plant)
# Protocol: as §1, with “14 days” for “one day”
# as §3
# ECHCG [8] = assay: Post-emergence biological efficacy; conditions: Echinochloa crus-galli, 312 h, evaluated after 13 days, read-out: damage to plant (100=total damage to plant; 0=no damage to plant)
# Protocol: as §1, with “14 days” for “one day”
# as §3
# ELEIN = assay: Post-emergence biological efficacy; conditions: 312 h, evaluated after 13 days, read-out: damage to plant (100=total damage to plant; 0=no damage to plant)
# Protocol: as §1, with “14 days” for “one day”
# as §3
# EPHHL [9] = assay: Post-emergence biological efficacy; conditions: Euphorbia heterophylla, 312 h, evaluated after 13 days, read-out: damage to plant (100=total damage to plant; 0=no damage to plant)
# Protocol: as §1, with “14 days” for “one day”
# as §3
# IPOHE [10] = assay: Post-emergence biological efficacy; conditions: Ipomoea hederacea, 312 h, evaluated after 13 days, read-out: damage to plant (100=total damage to plant; 0=no damage to plant)
# Protocol: as §1, with “14 days” for “one day”
# as §3
# LOLPE [11] = assay: Post-emergence biological efficacy; conditions: Lolium perenne, 312 h, evaluated after 13 days, read-out: damage to plant (100=total damage to plant; 0=no damage to plant)
# Protocol: as §1, with “14 days” for “one day”
# as §3
# SETFA [12] = assay: Post-emergence biological efficacy; conditions: Setaria faberi, 312 h, evaluated after 13 days, read-out: damage to plant (100=total damage to plant; 0=no damage to plant)
# Protocol: as §1, with “14 days” for “one day”
# as §3
SMILES,pest or weed control at 250 g/ha (AMAPA [1]) [%],pest or weed control at 250 g/ha (ECHCG [2]) [%],pest or weed control at 250 g/ha (EPHHL [3]) [%],pest or weed control at 250 g/ha (IPOHE [4]) [%],pest or weed control at 250 g/ha (LOLPE [5]) [%],pest or weed control at 250 g/ha (SETFA [6]) [%],pest or weed control at 250 g/ha (AMAPA [7]) [%],pest or weed control at 250 g/ha (CHEAL) [%],pest or weed control at 250 g/ha (DIGSA) [%],pest or weed control at 250 g/ha (ECHCG [8]) [%],pest or weed control at 250 g/ha (ELEIN) [%],pest or weed control at 250 g/ha (EPHHL [9]) [%],pest or weed control at 250 g/ha (IPOHE [10]) [%],pest or weed control at 250 g/ha (LOLPE [11]) [%],pest or weed control at 250 g/ha (SETFA [12]) [%]
"CCOC(=O)C1(C)CC(c2cc(-c3ccncc3)c(F)cc2Cl)=NO1 (stereo not drawn) [Compound 1-487, Ethyl 3-[2-chloro-4-fluoro-5-(4-pyridyl)-phenyl]-5-methyl-4H-isoxazole-5-carboxylate]",0,0,0,0,0,0,30,0,0,0,0,0,0,0,0
"CCOC(=O)C1(C)CC(c2cc(-c3c(Cl)cc(C(F)(F)F)c[n+]3[O-])c(F)cc2Cl)=NO1 (stereo not drawn) [Compound 1-667, Ethyl 3-[2-chloro-5-(3-chloro-1-oxido-5-trifluoromethyl-2-pyridyl)-4-fluoro-phenyl]-5-methyl-4H-isoxazole-5-carboxylate]",100,100,100,100,100,100,100,100,100,100,100,100,100,100,100
"CCOC(=O)C1(C)CC(c2cc(-c3cc(Cl)cnc3F)c(F)cc2Cl)=NO1 (stereo not drawn) [Compound 1-199, Ethyl 3-[2-chloro-5-(5-chloro-2-fluoro-3-pyridyl)-4-fluoro-phenyl]-5-methyl-4H-isoxazole-5-carboxylate]",80,0,30,0,10,10,100,90,50,70,20,90,100,40,60
"CCOC(=O)C1(C)CC(c2cc(-c3ccc(C)nc3F)c(F)cc2Cl)=NO1 (stereo not drawn) [Compound 1-463, Ethyl 3-[2-chloro-4-fluoro-5-(2-fluoro-6-methyl-3-pyridyl)-phenyl]-5-methyl-4H-isoxazole-5-carboxylate]",20,50,20,10,10,30,70,70,70,90,60,70,100,0,90
"CCOC(=O)C1(C)CC(c2cc(-c3ccccc3Cl)c(F)cc2Cl)=NO1 (stereo not drawn) [Compound 1-19, Ethyl 3-[2-chloro-5-(2-chlorophenyl)-4-fluoro-phenyl]-5-methyl-4H-isoxazole-5-carboxylate]",0,0,0,0,0,0,90,90,20,20,20,90,80,10,40
"CCOC(=O)C1(C)CC(c2cc(-c3ncccc3Cl)c(F)cc2Cl)=NO1 (stereo not drawn) [Compound 1-127, Ethyl 3-[2-chloro-5-(3-chloro-2-pyridyl)-4-fluoro-phenyl]-5-methyl-4H-isoxazole-5-carboxylate]",40,50,100,50,20,70,100,100,50,90,30,80,100,10,100
"CCOC(=O)C1(C)CC(c2cc(-c3ncc(C(F)(F)F)cc3F)c(F)cc2Cl)=NO1 (stereo not drawn) [Compound 1-91, Ethyl 3-[2-chloro-4-fluoro-5-[3-fluoro-5-(trifluoromethyl)-2-pyridyl]-phenyl]-5-methyl-4H-isoxazole-5-carboxylate]",100,100,100,100,90,100,100,100,100,100,100,100,100,100,100
"CCOC(=O)C1(C)CC(c2cc(-c3cc(C)cnc3F)c(F)cc2Cl)=NO1 (stereo not drawn) [Compound 1-223, Ethyl 3-[2-chloro-4-fluoro-5-(2-fluoro-5-methyl-3-pyridyl)phenyl]-5-methyl-4H-isoxazole-5-carboxylate]",0,0,0,0,0,0,100,80,30,50,10,70,100,20,80
"CCOC(=O)C1(C)CC(c2cc(-c3nc(C)cnc3C)c(F)cc2Cl)=NO1 (stereo not drawn) [Compound 1-787, Ethyl 3-[2-chloro-5-(3,6-dimethylpyrazin-2-yl)-4-fluoro-phenyl]-5-methyl-4H-isoxazole-5-carboxylate]",10,20,10,10,20,20,50,60,40,40,60,40,50,20,40
